Data as given in patent US8703805B2 (Exelixis Patent Company LLC, priority 2005, dated 2014).
pEC50: −log10 of the molar value. Values joined by “and” are separate entries in the source; they are usually repeats but may differ in a detail not shown here. Equal values may be shown once.

System: LXRα and/or LXRβ
Experiment: LXR/LXRE co-transfection assay (luciferase reporter, CV-1 cells)
Format: cell-based, human
Conditions: IC50 or EC50 for LXR (LXRα and/or LXRβ, not distinguished), tested as described in Example 109, CV-1 cells
How it was run: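 Transient co-transfection of CV-1 cells with full-length human LXRα or LXRβ plus RXRα expression plasmids and an LXREx1-Tk-luciferase reporter; compounds (10 μM screen, ≤1% DMSO) incubated 20 h at 37 °C. Luminescence read after lysis; EC50/IC50 from 8-point half-log curves, efficacy relative to a high control or DMSO.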

pEC50	Structure (SMILES)
> 6.00	CN1CCC(N(C)C(=O)c2cc(-c3ccc(-c4cccc(S(C)(=O)=O)c4)s3)n(-c3ccccc3Cl)n2)CC1 [Example 716, 1-(2-chlorophenyl)-N-methyl-N-(1-methylpiperidin-4-yl)-5-{5-[3-(methylsulfonyl)phenyl]-2-thienyl}-1H-pyrazole-3-carboxamide]
> 6.00	COC(C)(C)c1cc(-c2ccc(-c3cccc(S(C)(=O)=O)c3)s2)n(-c2ccccc2Cl)n1 [Example 134, 1-(2-chlorophenyl)-3-(2-methoxypropan-2-yl)-5-(5-(3-(methylsulfonyl)phenyl)thiophen-2-yl)-1H-pyrazole]
5.00 to 6.00	CC(C)(O)c1ccc(-c2ccc(-c3cc(C(F)(F)F)nn3-c3ccccc3Cl)s2)cc1 [Example 1241, 2-(4-{5-[1-(2-chlorophenyl)-3-(trifluoromethyl)-1H-pyrazol-5-yl]-2-thienyl}phenyl)propan-2-ol]
> 6.00	CN(Cc1cc(-c2ccc(-c3cccc(S(C)(=O)=O)c3)s2)n(-c2ccccc2Cl)n1)Cc1ncco1 [Example 1147, 1-[1-(2-chlorophenyl)-5-{5-[3-(methylsulfonyl)phenyl]-2-thienyl}-1H-pyrazol-3-yl]-N-methyl-N-(1,3-oxazol-2-ylmethyl)methanamine]
> 6.00	CS(=O)(=O)c1cccc(Oc2ccc(-c3cc(C(F)(F)F)nn3-c3ccccc3Cl)cc2)c1 [Example 68, 1-(2-chlorophenyl)-5-(4-{[3-(methylsulfonyl)phenyl]oxy}phenyl)-3-(trifluoromethyl)-1H-pyrazole]
> 6.00	CC(C)(O)c1cc(-c2ccc(-c3cccc(S(C)(=O)=O)c3)s2)n(-c2cccnc2Cl)n1 [Example 1273, 2-[1-(2-chloropyridin-3-yl)-5-{5-[3-(methylsulfonyl)phenyl]-2-thienyl}-1H-pyrazol-3-yl]propan-2-ol]
> 6.00	Cc1c(C(C)(C)O)nn(-c2ccccc2Cl)c1-c1ccc(-c2cccc(S(C)(=O)=O)c2)s1 [Example 1301, 2-[1-(2-chlorophenyl)-4-methyl-5-{5-[3-(methylsulfonyl)phenyl]-2-thienyl}-1H-pyrazol-3-yl]propan-2-ol]
5.00 to 6.00 and > 6.00	CS(=O)(=O)c1cccc(-c2ccc(-c3cc(C(F)(F)F)nn3-c3ccccc3Cl)cc2C(=O)O)c1 [Example 1139, 4-[1-(2-chlorophenyl)-3-(trifluoromethyl)-1H-pyrazol-5-yl]-3′-(methylsulfonyl)biphenyl-2-carboxylic acid]
> 6.00	CC(C)(O)c1cc(-c2ccc(-c3cccc(S(C)(=O)=O)c3)s2)n(-c2cccnc2)n1 [Example 1346, 2-(5-{5-[3-(methylsulfonyl)phenyl]-2-thienyl}-1-pyridin-3-yl-1H-pyrazol-3-yl)propan-2-ol]
< 5.00	CC(C)(O)c1cc(-c2ccc(C(=O)N3CCC3)cc2)n(-c2ccccc2Cl)n1 [Example 80]
5.00 to 6.00	CC(C)(O)c1cc(-c2ccccc2Cl)n(-c2ccc(-c3cccc(S(C)(=O)=O)c3)cn2)n1 [Example 1233, 2-[5-(2-chlorophenyl)-1-{5-[3-(methylsulfonyl)phenyl]pyridin-2-yl}-1H-pyrazol-3-yl]propan-2-ol]
> 6.00	Cc1ccc(F)cc1-n1nc(C(C)(C)O)cc1-c1ccc(-c2cccc(S(C)(=O)=O)c2)s1 [Example 1331, 2-[1-(5-fluoro-2-methylphenyl)-5-{5-[3-(methylsulfonyl)phenyl]-2-thienyl}-1H-pyrazol-3-yl]propan-2-ol]
5.00 to 6.00	COC(=O)c1cccc(-c2ccc(-c3cc(C(=O)NCC(F)(F)F)nn3-c3ccccc3Cl)s2)c1 [Example 1275]
> 6.00	COC(C)(C)c1cc(-c2ccc(-c3cccc(S(C)(=O)=O)c3)s2)n(-c2ccccc2C(F)(F)F)n1 [Example 1189, 3-[1-methyl-1-(methyloxy)ethyl]-5-{5-[3-(methylsulfonyl)phenyl]-2-thienyl}-1-[2-(trifluoromethyl)phenyl]-1H-pyrazole]
5.00 to 6.00	CON(C)C(=O)c1cc(-c2ccc(-c3cccc(S(C)(=O)=O)c3)s2)n(-c2ncccc2C(F)(F)F)n1 [Example 1237, N-methyl-N-(methyloxy)-5-{5-[3-(methylsulfonyl)phenyl]-2-thienyl}-1-[3-(trifluoromethyl)pyridin-2-yl]-1H-pyrazole-3-carboxamide]
> 6.00	CC(C)(O)c1cc(-c2ccc(-c3cccc(S(C)(=O)=O)c3)s2)n(-c2cc(F)ccc2Cl)n1 [Example 1334, 2-[1-(2-chloro-5-fluorophenyl)-5-{5-[3-(methylsulfonyl)phenyl]-2-thienyl}-1H-pyrazol-3-yl]propan-2-ol]
> 6.00	CC(C)(O)c1nn(-c2cccc(F)c2Cl)c(-c2ccc(-c3cccc(S(C)(=O)=O)c3)s2)c1Br [Example 1372, 2-[4-bromo-1-(2-chloro-3-fluorophenyl)-5-{5-[3-(methylsulfonyl)phenyl]-2-thienyl}-1H-pyrazol-3-yl]propan-2-ol]

pEC50	Structure (SMILES)
> 6.00	CC(C)(O)c1cc(-c2ccc(-c3cccc(S(C)(=O)=O)c3)s2)n(-c2ccccc2OC(F)(F)F)n1 [Example 1327, 2-(5-{5-[3-(methylsulfonyl)phenyl]-2-thienyl}-1-(2-[(trifluoromethyl)oxy]phenyl}-1H-pyrazol-3-yl)propan-2-ol]
> 6.00	CC(C)(O)c1cc(-c2ccc(-c3cccc(S(C)(=O)=O)c3)s2)n(Cc2ccc(F)cc2F)n1 [Example 1243, 2-(1-[(2,4-difluorophenyl)methyl]-5-{5-[3-(methylsulfonyl)phenyl]-2-thienyl}-1H-pyrazol-3-yl)propan-2-ol]
5.00 to 6.00	CC(C)(O)c1cc(-c2cc(-c3cccc(S(C)(=O)=O)c3)co2)n(-c2ccccc2Cl)n1 [Example 1235, 2-[1-(2-chlorophenyl)-5-{4-[3-(methylsulfonyl)phenyl]furan-2-yl}-1H-pyrazol-3-yl]propan-2-ol]
5.00 to 6.00	CC(C)NC(=O)c1cccc(-c2ccc(-c3cc(C(C)(C)O)nn3-c3ccccc3Cl)cc2)c1 [Example 1292, 4′-[1-(2-chlorophenyl)-3-(1-hydroxy-1-methylethyl)-1H-pyrazol-5-yl]-N-(1-methylethyl)biphenyl-3-carboxamide]
> 6.00	Cc1cc(-c2cccc(S(C)(=O)=O)c2)ccc1-n1nc(C(C)(C)O)cc1-c1ccccc1Cl [Example 113, 2-(5-(2-chlorophenyl)-1-(3-methyl-3′-(methylsulfonyl)biphenyl-4-)-1H-pyrazol-3-yl)propan-2-ol]
> 6.00	CC(=O)c1cc(-c2cc(C(F)(F)F)nn2-c2ccccc2Cl)ccc1-c1cccc(S(C)(=O)=O)c1 [Example 1206, 1-{4-[1-(2-chlorophenyl)-3-(trifluoromethyl)-1H-pyrazol-5-yl]-3′-(methylsulfonyl)biphenyl-2-yl}ethanone]
> 6.00	CC(C)(O)c1cc(-c2ccc(-c3cccc(S(C)(=O)=O)c3)s2)n(-c2cccc(Cl)c2F)n1 [Example 1328, 2-[1-(3-chloro-2-fluorophenyl)-5-{5-[3-(methylsulfonyl)phenyl]-2-thienyl}-1H-pyrazol-3-yl]propan-2-ol]
5.00 to 6.00	COC(=O)Cc1ccc(-c2ccc(-c3cc(C(F)(F)F)nn3-c3ncccc3C(F)(F)F)s2)c(C)c1 [Example 1153, methyl [3-methyl-4-(5-{3-(trifluoromethyl)-1-[3-(trifluoromethyl)pyridin-2-yl]-1H-pyrazol-5-yl}-2-thienyl)phenyl]acetate]
> 6.00	CC(C)(O)c1cc(-c2ccc(-c3cccc(S(C)(=O)=O)c3)cc2Cl)n(-c2cccnc2C(F)(F)F)n1 [Example 1385, 2-(5-(3-chloro-3′-(methylsulfonyl)biphenyl-4-yl)-1-(2-(trifluoromethyl)pyridin-3-yl)-1H-pyrazol-3-yl)propan-2-ol]
5.00 to 6.00	CN(Cc1cccnc1)C(=O)c1cc(-c2ccc(-c3cccc(S(C)(=O)=O)c3)s2)n(-c2ccccc2Cl)n1 [Example 1271, 1-(2-chlorophenyl)-N-methyl-5-{5-[3-(methylsulfonyl)phenyl]-2-thienyl}-N-(pyridin-3-ylmethyl)-1H-pyrazole-3-carboxamide]
5.00 to 6.00	CC(C)(O)c1cc(-c2ccc(-c3ccc(S(C)(=O)=O)cc3)cc2)n(-c2ccccc2Cl)n1 [Example 1305, 2-{1-(2-chlorophenyl)-5-[4′-(methylsulfonyl)biphenyl-4-yl]-1H-pyrazol-3-yl}propan-2-ol]
5.00 to 6.00	CC(C)(O)c1cc(-c2ccc(-c3cccc(S(C)(=O)=O)c3)s2)n(-c2ccc(Cl)cc2Cl)n1 [Example 1280, 2-[1-(2,4-dichlorophenyl)-5-{5-[3-(methylsulfonyl)phenyl]-2-thienyl}-1H-pyrazol-3-yl]propan-2-ol]
> 6.00	CC(C)(O)c1nn(-c2c(Cl)cccc2Cl)c(-c2ccc(-c3cccc(S(C)(=O)=O)c3)cc2)c1Cl [Example 138, 2-(4-chloro-1-(2,6-dichlorophenyl)-5-(3′-(methylsulfonyl)biphenyl-4-yl)-1H-pyrazol-3-yl)propan-2-ol]
5.00 to 6.00	CCN1CCC(CNC(=O)c2cc(-c3ccc(-c4cccc(S(C)(=O)=O)c4)s3)n(-c3ccccc3Cl)n2)C1 (stereo not drawn) [Example 739, 1-(2-chlorophenyl)-N-[(1-ethylpyrrolidin-3-yl)methyl]-5-{5-[3-(methylsulfonyl)phenyl}-2-thienyl}-1H-pyrazole-3-carboxamide]
5.00 to 6.00	CC(C)(O)c1cc(-c2ccc(-c3cccc(S(C)(=O)=O)c3)s2)n(-c2cc(Cl)ccc2Cl)n1 [Example 1279, 2-[1-(2,5-dichlorophenyl)-5-{5-[3-(methylsulfonyl)phenyl]-2-thienyl}-1H-pyrazol-3-yl]propan-2-ol]
> 6.00	CC(C)(O)c1cc(-c2ccc(-c3cccc(S(C)(=O)=O)c3)s2)n(-c2cc(Cl)ccc2Oc2ccccc2)n1 [Example 1212, 2-(1-[5-chloro-2-(phenyloxy)phenyl]-5-{5-[3-(methylsulfonyl)phenyl]-2-thienyl}-1H-pyrazol-3-yl)propan-2-ol]
